In patent US12018059B2, “Human amylin analog polypeptides and methods of use” (Intarcia Therapeutics, Inc., priority 2018, dated 2024):
Starred links: 1 amine or outer side, 2 acyl side, 3 side chain; linkers in the order of their positions; H or OH if unused. Positions of bridges follow the written chain, without caps; N, C: chain ends. Non-standard residues stand in square brackets, D forms with d. Residues, ends and D or L forms follow the SMILES beside them. Groups on a side chain read outwards from the residue. *: point of attachment. C20 diacid = O=C(O)CCCCCCCCCCCCCCCCCCC(=O)*; C16 diacid = O=C(O)CCCCCCCCCCCCCCC(=O)*; γGlu = O=C(O)[C@H](CCC(=O)[*:2])N[*:1]; Palmitoyl = CCCCCCCCCCCCCCCC(=O)*

Experiment: in vivo
Design: species or system Sprague-Dawley rats
Details: rat, iv, 0.033 mg/kg
Outline: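 Male Sprague-Dawley rats, non-fasted (n=3), given peptide in saline as 1-h IV or SC infusion at 0.033 mg/kg, or SC bolus at 0.3 mg/kg; jugular blood to 48 h into K2EDTA plus protease inhibitors. Plasma extracted by precipitation or WCX solid-phase extraction, quantified by UPLC-MS/MS against standards in matching rat plasma.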

| Vd (male, Sprague-Dawley) | clearance (male, Sprague-Dawley) | half-life (male, Sprague-Dawley) | SMILES | Vd | clearance | half-life |
| --- | --- | --- | --- | --- | --- | --- |
| – | – | – | CCCCCCCCCCCCCCCC(=O)N[C@@H](CCC(=O)N[C@@H](CCC(=O)NCCCC[C@@H](NC(=O)[C@H](Cc1ccccc1)NC(=O)[C@H](CC(N)=O)NC(=O)[C@H](C)NC(=O)[C@H](CC(C)C)NC(=O)[C@H](CCCNC(=N)N)NC(=O)[C@H](CCC(N)=O)NC(=O)[C@@H](NC(=O)[C@H](C)NC(=O)[C@@H]1CSSC[C@H](NC(=O)[C@@H](N)CO)C(=O)N[C@@H](CC(N)=O)C(=O)N[C@@H]([C@@H](C)O)C(=O)N[C@@H](CO)C(=O)N[C@@H]([C@@H](C)O)C(=O)N1)[C@@H](C)O)C(=O)N[C@@H](Cc1c[nH]cn1)C(=O)N[C@@H](CCCCN)C(=O)N[C@@H](CO)C(=O)N[C@@H](CO)C(=O)N[C@@H](CC(N)=O)C(=O)N[C@@H](CC(N)=O)C(=O)N[C@@H](Cc1ccccc1)C(=O)NCC(=O)N1CCC[C@H]1C(=O)N[C@H](C(=O)N[C@@H](CC(C)C)C(=O)N1CCC[C@H]1C(=O)N1CCC[C@H]1C(=O)N[C@H](C(=O)N[C@@H](CCCCN)C(=O)N[C@H](C(=O)NCC(=O)N[C@@H](CO)C(=O)N[C@@H](CCC(=O)O)C(=O)N[C@H](C(=O)N[C@@H](Cc1ccc(O)cc1)C(N)=O)[C@@H](C)O)C(C)C)[C@@H](C)O)[C@@H](C)CC)C(=O)O)C(=O)O [Compound A70] (H-SCNTSTCATQRLANF[dK]([γGlu-γGlu-Palmitoyl])HKSSNNFGPILPPTKVGSETY-NH2; disulfide 2-7) | 0.187 L/kg | 3.08 mL/min/kg | 0.752 h |
| – | – | – | CC[C@H](C)[C@H](NC(=O)[C@@H]1CCCN1C(=O)CNC(=O)[C@H](Cc1ccccc1)NC(=O)[C@H](CC(N)=O)NC(=O)[C@H](CC(N)=O)NC(=O)[C@H](CO)NC(=O)[C@H](CO)NC(=O)[C@H](CCCCN)NC(=O)[C@H](Cc1c[nH]cn1)NC(=O)[C@H](CC(C)C)NC(=O)[C@H](CCCCNC(=O)CCCCCCCCCCCCCCC(=O)O)NC(=O)[C@H](CC(N)=O)NC(=O)[C@H](C)NC(=O)[C@H](CC(C)C)NC(=O)[C@H](CCCNC(=N)N)NC(=O)[C@H](CCC(N)=O)NC(=O)[C@@H](NC(=O)[C@H](C)NC(=O)[C@@H]1CSSC[C@H](NC(=O)[C@@H](N)CO)C(=O)N[C@@H](CC(N)=O)C(=O)N[C@@H]([C@@H](C)O)C(=O)N[C@@H](CO)C(=O)N[C@@H]([C@@H](C)O)C(=O)N1)[C@@H](C)O)C(=O)N[C@@H](CC(C)C)C(=O)N1CCC[C@H]1C(=O)N1CCC[C@H]1C(=O)N[C@H](C(=O)N[C@@H](CCCCN)C(=O)N[C@H](C(=O)NCC(=O)N[C@@H](CO)C(=O)N[C@@H](CCC(=O)O)C(=O)N[C@H](C(=O)N[C@@H](Cc1ccc(O)cc1)C(N)=O)[C@@H](C)O)C(C)C)[C@@H](C)O [Compound A72] (H-SCNTSTCATQRLANK(C16 diacid)LHKSSNNFGPILPPTKVGSETY-NH2; disulfide 2-7) | 0.172 L/kg | 1.54 mL/min/kg | 3.44 h |
| 0.0924 L/kg | 0.0449 mL/min/kg | 26.6 h | CC[C@H](C)[C@H](NC(=O)[C@@H]1CCCN1C(=O)CNC(=O)[C@H](Cc1ccccc1)NC(=O)[C@H](CC(N)=O)NC(=O)[C@H](CC(N)=O)NC(=O)[C@H](CO)NC(=O)[C@H](CO)NC(=O)[C@H](CCCCN)NC(=O)[C@H](Cc1c[nH]cn1)NC(=O)[C@H](CCCCNC(=O)CC[C@H](NC(=O)CCCCCCCCCCCCCCCCCCC(=O)O)C(=O)O)NC(=O)[C@H](CCC(=O)O)NC(=O)[C@H](CC(N)=O)NC(=O)[C@H](C)NC(=O)[C@H](CC(C)C)NC(=O)[C@H](CCCNC(=N)N)NC(=O)[C@H](CCC(N)=O)NC(=O)[C@@H](NC(=O)[C@H](C)NC(=O)[C@@H]1CSSC[C@H](NC(=O)[C@@H](N)CO)C(=O)N[C@@H](CC(N)=O)C(=O)N[C@@H]([C@@H](C)O)C(=O)N[C@@H](CO)C(=O)N[C@@H]([C@@H](C)O)C(=O)N1)[C@@H](C)O)C(=O)N[C@@H](CC(C)C)C(=O)N1CCC[C@H]1C(=O)N1CCC[C@H]1C(=O)N[C@H](C(=O)N[C@@H](CCCCN)C(=O)N[C@H](C(=O)NCC(=O)N[C@@H](CO)C(=O)N[C@@H](CCC(=O)O)C(=O)N[C@H](C(=O)N[C@@H](Cc1ccc(O)cc1)C(N)=O)[C@@H](C)O)C(C)C)[C@@H](C)O [Compound A73] (H-SCNTSTCATQRLANEK([γGlu-C20 diacid])HKSSNNFGPILPPTKVGSETY-NH2; disulfide 2-7; N-terminus assumed) | – | – | – |
